Entries after “also recorded” stand apart in the source; their conditions may differ.

Assay [1] has as its system Lactobacillus fermentum ATCC 14931. The assay can be described thus: Flow cytometry, uptake of ethidium bromide by L. fermentum. Format: cell-based. To be noted: 15 μM ethidium bromide; for uptake of ethidium bromide (ethidium-conferred fluorescence): 0.5 mM sesquiterpenoid, 40 minutes. The method, then:
(§1) Erwinia sp. #351 was from Presque Isle Cultures, Presque Isle, Pa. Lactobacillus fermentum ATCC 14931, zygosaccharomyces bailii ATCC 60483 and E. coli ATCC 25922 (National Committee on Clinical Laboratory Standards antibiotic test strain) were from the American Type Culture Collection, Manassas, Va. Staphylococcus aureus ATCC 6538 and Enterococcus faecalis Bact. 4025 were obtained from the UW-Madison Department of Bacteriology culture collection. All bacteria except for L. fermentum were grown statically in screwcap tubes containing 10 ml Trypticase Soy Broth (BBL, Cockeysville, Md.) for 20-22 hours at 30° C. L. fermentum was grown statically in screwcap tubes containing 10 ml MRS broth (Difco) for 20-22 hours at 30° C. Cultures of Z. bailii were grown in 125 ml culture flasks containing 50 ml YM broth (Difco) on a rotary shaker set at 200 rpm for 20-22 hours at 25° C. For experiments involving flow cytometry, overnight cultures of Erwinia sp., L. fermentum and Z. bailli were set to a concentration of ca. 10^7 cfu/ml in 67 mM phosphate buffer, pH 7.0 (filtered, 0.2 μm). For the examination of sesquiterpenoids, cell suspensions containing either 0.5% ethanol and 15 μM ethidium bromide or 0.5 mM apritone, bisabolol, nerolidol or farnesol dissolved in ethanol (0.5% ethanol, final concentration) and 15 μM ethidium bromide were incubated for 40 minutes at room temperature. After incubation, cell suspensions were diluted 1:10 in 67 mM phosphate buffer, pH 7.0 (filtered, 0.2 μm) and examined using a FACScan flow cytometer (Becton Dickinson and Company, Cockeysville, Md.). Data were collected in logarithmic mode on forward scatter, side scatter and fluorescence characteristics of the cells.

Assay [2] has as its system Enterococcus faecalis Bact. 4025. Format: cell-based. Particulars: E. faecalis; for degree of sensitization to antibiotics: disc diffusion; for degree of sensitization to antibiotics / zones smaller than control plates by: 1 mM sesquiterpenoid; for zones smaller than control plates by: clindamycin 2 μg disc. The method, then:
(§2) Erwinia sp. #351 was from Presque Isle Cultures, Presque Isle, Pa. Lactobacillus fermentum ATCC 14931, zygosaccharomyces bailii ATCC 60483 and E. coli ATCC 25922 (National Committee on Clinical Laboratory Standards antibiotic test strain) were from the American Type Culture Collection, Manassas, Va. Staphylococcus aureus ATCC 6538 and Enterococcus faecalis Bact. 4025 were obtained from the UW-Madison Department of Bacteriology culture collection. All bacteria except for L. fermentum were grown statically in screwcap tubes containing 10 ml Trypticase Soy Broth (BBL, Cockeysville, Md.) for 20-22 hours at 30° C. L. fermentum was grown statically in screwcap tubes containing 10 ml MRS broth (Difco) for 20-22 hours at 30° C. Cultures of Z. bailii were grown in 125 ml culture flasks containing 50 ml YM broth (Difco) on a rotary shaker set at 200 rpm for 20-22 hours at 25° C.
(§3) The activity of terpenoid compounds toward facilitating susceptibility to antibiotics was assessed using an antibiotic disc assay. For this assay, cells from an overnight growth were suspended to a known concentration in 0.5 ml 67 mM phosphate buffer, pH 7.0 and mixed with 4.5 ml 0.7% Iso-Sensitest agar (Oxoid, Basingstoke, Hampshire, England) overlay tempered to 50° C. Terpenoid compounds dissolved in absolute ethanol were added to the cell/agar overlay mixture yielding final concentrations of 0.5, 1.0 or 2.0 mM, depending on the experiment. The final concentration of ethanol in cell overlays was 0.5% and the final concentration of target cells was ca. 10^6 cfu/ml. After thorough vortexing, terpenoid-containing cell overlays were poured over hardened Iso-Sensitest agar (2% agar) plates and allowed to set. […] After incubation, zones of inhibition were measured with a ruler from the bottom of the plates.
For orientation: Agar diffusion results depend on both activity and mobility in agar.

For assay [3], the system named is Staphylococcus aureus ATCC 6538. The assay is described as follows: Antibiotic disc assay (zones of inhibition), S. aureus. Format: cell-based. To be noted: for ability to sensitize S. aureus to ciprofloxacin: 0.5 mM terpenoid; for ability to sensitize S. aureus to ciprofloxacin / zone size, ciprofloxacin 5 μg disc: ciprofloxacin 5 μg disc; for sensitization to six different antibiotics: disc diffusion, 0.5-2 mM sesquiterpenoid; for zone size, ciprofloxacin 5 μg disc: terpenoid at 0.5 mM in agar overlay. As for the experimental part: as §2, §3

Assay [4] deals with zygosaccharomyces bailii ATCC 60483. The assay can be described thus: Flow cytometry, uptake of ethidium bromide by Z. bailii. Format: cell-based. Particulars: 0.5 mM sesquiterpenoid, 15 μM ethidium bromide, 40 minutes. The method, then:
as §1
(In general: A flow cytometer gives signals particle by particle.)

Another assay deals with E. coli ATCC 25922. The assay is described as follows: Plating assay, nerolidol enhancing polymyxin B activity against E. coli. Format: cell-based, Escherichia coli. To be noted: 1 mM nerolidol plus 10 ppm polymyxin B, up to 30 minutes at 37° C. As for the experimental part:
as §2, with “25° C. […]” for “25° C.”
Cell suspensions (1.7×10^7 cfu/ml in 67 mM phosphate buffer, pH 7.0) were treated as shown and incubated for up to 30 minutes at 37° C. Cell viability was determined at appropriate intervals by pour plating with Trypticase Soy agar tempered to 50° C.

Turning to `CC(C)=CCC/C(C)=C/CC1CCCC1=O` (stereo not drawn) [apritone], the “uptake of ethidium bromide (ethidium-conferred fluorescence)” value (“uptake … (ethidium-conferred fluorescence)” for short) in assay [1] was “facilitated the uptake of ethidium bromide”. Moreover, the “degree of sensitization to antibiotics” value in assay [2] is given as “only a modest degree of sensitization”. Further, in assay [3], the “ability to sensitize S. aureus to ciprofloxacin” value was “least effective”; the “sensitization to six different antibiotics” value was “readily sensitized”; the “zone size, ciprofloxacin 5 μg disc” value came to 24 mm. Further, in assay [4], the “uptake of ethidium bromide (fluorescence, chromosomal staining)” value is reported as “greatest degree of chromosomal staining; also recorded: became more fluorescent”.
`CC(C)=CCC[C@](C)(O)C1CC=C(C)CC1` (stereo partly drawn) [bisabolol]: in assay [1], the “uptake … (ethidium-conferred fluorescence)” value was “facilitated the uptake of ethidium bromide”. Besides, in assay [2], the “zones smaller than control plates by” value stood at 1 mm and the “degree of sensitization to antibiotics” value is listed as “only a modest degree of sensitization”. Moreover, in assay [3], the “sensitization to six different antibiotics” value was “readily sensitized” and the “zone size, ciprofloxacin 5 μg disc” value stood at 25 mm. Also, the “uptake of ethidium bromide (fluorescence, chromosomal staining)” value in assay [4] is “became more fluorescent”.
For the molecule `CC(C)=CCCC(C)=CCCC(C)=CCO` [farnesol], the “uptake … (ethidium-conferred fluorescence)” value is on record as “facilitated the uptake of ethidium bromide” in assay [1] and “highest ethidium-conferred fluorescence peak” in assay [1] (listed as Farnesol). Also, the “inhibitory by itself in disc assay overlay” value is “inhibitory” in assay [2] (1 mM) and “inhibitory” in assay [3] (all concentrations used (0.5, 1, 2 mM)). The “uptake of ethidium bromide (fluorescence, chromosomal staining)” value in assay [4] is given as “became more fluorescent”.
Turning to `C=CC(C)(O)CCC=C(C)CCC=C(C)C` (stereo not drawn) [nerolidol], in assay [1] (0.5 mM nerolidol), the “time to substantial uptake of ethidium bromide” value is not above 5 min. In addition, the “uptake … (ethidium-conferred fluorescence)” value in assay [1] was “facilitated the uptake of ethidium bromide”. Also, in assay [2], the “zones smaller than control plates by” value is 1 mm and the “degree of sensitization to antibiotics” value is recorded as “only a modest degree of sensitization”. In addition, the “enhancement of inhibition zone size” value in assay [2] (nerolidol 1 mM combined with gentamicin 10 μg disc) is given as “almost two-fold enhancement”. Moreover, the “susceptibility of E. coli to polymyxin B (cell viability, cfu/ml)” value in the assay on E. coli ATCC 25922 is “dramatic increase in the susceptibility; also recorded: synergistic effect”. Also, in assay [3], the “ability to sensitize S. aureus to ciprofloxacin” value is on record as “most effective”; the “sensitization to six different antibiotics” value was “readily sensitized”; the “zone size, ciprofloxacin 5 μg disc” value is given as 27.5 mm. The “uptake of ethidium bromide (fluorescence, chromosomal staining)” value in assay [4] is “became more fluorescent”.

For the origin of these results see patent US20020165130A1, “Method of sensitizing microbial cells to antimicrobial compounds” (priority 1998, published 2002).
